# According to US20100183546A1, “Method for Increasing CD8+ Cytotoxic T Cell Responses and for Treating Multiple Sclerosis” (Baylor College of Medicine, priority 2003, published 2010):
# System: CD8+ T cells in CD4-depleted PBMC
# Test: Precursor frequency analysis of CD8+ T cells recognizing MBP-derived peptides (split-well method, [3H]-thymidine proliferation)
# Format: cell-based, human
# Details: MS patients vs healthy controls; p<0.05 for MBP111-119 and MBP87-95
row,Substance,frequency of peptide-recognizing CD8+ T cells in MS patients compared with control subjects
1,"SLSRFSWGA [SEQ ID NO. 2, Fragment of human MBP, amino acids 111-119]",considerably higher
2,"MBPVVHFFKNIV [SEQ ID NO. 1, Fragment of human MBP, amino acids 87-95]",considerably higher
3,"immunodominant epitope (residues 830-838) of tetanus toxoid: synthetic peptide corresponding to an immunodominant peptide of tetanus toxoid (residues 830-838), used as control (QYIKANSKF; UniProt P04958 830-838, looked up, fragment) [reference compound]",did not differ significantly
